Data published in ChEMBL document CHEMBL1152487, “3D-QSAR studies of HDACs inhibitors using pharmacophore-based alignment” (Eur J Med Chem, 2009).

Assay: Inhibition of HDAC

Row | pIC50 | IC50 [nM] | Compound
1 | 6.99 | 103 | O=C(CCCCCN1C(=O)c2ccccc2C1=O)NO
2 | 4.95 | 11200 | CC(=O)c1cc(/C=C/C(=O)NO)n(C)c1
3 | 4.92 | 12200 | Cn1cc(C=O)cc1/C=C/C(=O)NO
4 | 6.52 | 300 | O=C(/C=C/c1ccc(NS(=O)(=O)c2ccc(Cl)cc2Cl)cc1)NO
5 | 4.28 | 52600 | Cn1cc(C=O)cc1CCC(=O)NO
6 | 7.22 | 60 | COc1ccc(S(=O)(=O)Nc2ccc(/C=C/C(=O)NO)cc2)cc1

The remaining lines, values behind:

Row | Compound | pIC50 | IC50 [nM]
7 | O=C(CCCCCCCc1ccc2ccccc2c1)NO | 7.6 | 
8 | O=C(CCCCC/C=C/c1ccc2ccccc2c1)NO | 8.22 | 
9 | Cc1ccc(S(=O)(=O)Nc2ccc(/C=C/C(=O)NO)cc2)cc1 | 6.52 | 300
10 | O=C(CCCCCCC(=O)c1ccc(N2CCN(c3ccccc3)CC2)cc1)NO | 8.35 | 
11 | O=C(/C=C/c1ccc(NS(=O)(=O)c2ccc(Cl)c(Cl)c2)cc1)NO | 7 | 100
12 | O=C(Cc1ccc(NS(=O)(=O)c2ccccc2)cc1)NO | 6 | 1000
13 | O=C(CCCCCCC(=O)c1cccnc1)NO | 6.82 | 
14 | O=C(CCc1ccc(NS(=O)(=O)c2ccccc2)cc1)NO | 7 | 100
15 | Cn1cc(C(=O)Cl)cc1/C=C/C(=O)NO | 5.01 | 9650
16 | O=C(CCCCCCC(=O)c1ccc(C(F)(F)F)cc1)NO | 7.35 | 
